In patent publication US4847271A, “Antihypercholesterolemic β-lactones” (Merck & Co., Inc., priority 1987, dated 1989):
pIC50: −log10 of the molar value. Like-named read-outs stand apart in the source and are kept apart here.

Biological target: T1, HMG-CoA synthase (Rattus norvegicus, UniProt P17425)
T1 construct: The livers from male Charles River CD rats (225-350 g) were homogenized in 0.25 M sucrose; from tissue; host or cells: rat liver (male Charles River CD rats), 100,000×g supernatant, ammonium sulfate precipitate, DEAE-52 fraction
T1 sequence (P17425 1-520): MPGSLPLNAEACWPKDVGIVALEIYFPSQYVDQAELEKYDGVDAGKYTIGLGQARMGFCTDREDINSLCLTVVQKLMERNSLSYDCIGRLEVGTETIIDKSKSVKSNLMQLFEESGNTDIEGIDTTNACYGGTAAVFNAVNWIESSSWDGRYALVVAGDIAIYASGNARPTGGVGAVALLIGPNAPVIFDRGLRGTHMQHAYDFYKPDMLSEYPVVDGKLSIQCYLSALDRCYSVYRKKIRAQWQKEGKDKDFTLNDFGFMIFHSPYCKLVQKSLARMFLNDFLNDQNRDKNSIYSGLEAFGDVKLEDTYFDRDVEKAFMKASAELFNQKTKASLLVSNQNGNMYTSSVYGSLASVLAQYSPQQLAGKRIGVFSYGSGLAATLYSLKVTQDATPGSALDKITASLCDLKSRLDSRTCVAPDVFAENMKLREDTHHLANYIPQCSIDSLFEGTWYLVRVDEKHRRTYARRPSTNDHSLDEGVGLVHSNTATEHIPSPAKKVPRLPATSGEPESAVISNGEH
Test: HMG-CoA synthase inhibition assay (in vitro, enzyme partially purified from rat liver)
Type: biochemical
Conditions: for pIC50: HMG-CoA synthase activity, 5 min preincubation, 30°, read-out: IC50
Experimental: The intrinsic HMG-CoA synthase inhibition activity of the compounds of this invention is measured by the standard in vitro protocol described below:
The livers from male Charles River CD rats (225-350 g) were homogenized in 0.25 M sucrose which was adjusted with phenylmethylsulfonylfluoride (PMSF) and N-p-tosyl-1-lysine chloromethyl ketone (TLCK) so that the final concentration of each was 50 and 25 μg/ml, respectively. The homogenate was centrifuged at 15,000×g for 20 minutes, the supernatant filtered through a fine nylon screen to remove most of the fat layer and recentrifuged at 100,000×g for 1 hour. This supernatant was removed and 1 M potassium phosphate, dithiothreitol (DTT) and ethylene glycolbis(β-aminoethyl ether)-N,N,N',N'-tetraacetic acid (EGTA) added to give a final concentration of 0.1 M (pH 7.2), 0.5 mM and 0.1 mM, respectively. Solid ammonium sulfate was added to 50% saturation to the protein solution, it was centrifuged at 15,000×g and the […]. This precipitated protein could be stored at -70° for at least one month with very little loss of activity. The ammonium sulfate rrecipitate was dissolved in an minimal amount of 0.06 M potassium phosphate buffer (pH 7.2) containing 0.5 mM dithiothreitol and 0.1 mM EGTA (referred to as 0.06 M phosphate buffer) and dialyzed overnight against 2 liters of the same buffer to remove the ammonium sulfate and to inactivate HMG-CoA lyase [Clinkenbeard, et al., J. Biol. Chem 250, 3108-3116(1975)].
The dialyzed extract was added to a column of DEAE-52 (Whatman) which had been equilibrated with 0.06 M phosphate buffer (10 mg of protein to 1 ml bed volume of the resin). The DEAE-cellulose was eluted with 0.06 M Phosphate buffer until the optical density at 280 nm was essentially zero. This fraction contained the β-ketoacetyl-CoA thiolase activity. The HMG-CoA synthase was eluted from the column with 0.1 M phosphate buffer (pH 7.2) containing 0.5 mM DTT and 0.1 mM EGTA, and was virtually free of all thiolase activity. The protein was precipitated by the addition of ammonium sulfate to give 50% saturation. This solution was stirred for 10 minutes at 4° C. and the precipitate collected by centrifugation at 15,000 rpm for 10 minutes. The supernatant was discarded and the precipitate dissolved in a minimum of 0.06 M phosphate buffer, pH 7.2 (about 10 ml) and the enzyme stored at -80° C.
HMG-CoA Synthase Inhibition Assay
Enzyme protein (ca. 24 μg) was added to a solution containing 117 mM Tris-HCl (pH 8.0), 11.7 mM MgCl2, 1.17 mM Ethylenediaminetetraacetic acid (EDTA), 0.58 mM dithiothreitol, and the indicated concentrations of the test compound (added as a 2 μg/ml solution in dimethylsulfoxide). The incubation took place in a volume of 0.085 ml at 30° in a shaking water bath. After 5 minutes, 15 μl of a solution containing acetoacetyl-CoA and 0.1 μCi of 1-[^14 C]-acetyl-CoA was added to give a final concentrations of 0.1 and 0.4 mM, respectively. The incubation was continued for 10 more minutes and the reaction stopped by the addition of 50 μl of the assay mixture to 0.2 ml of 6N HCl in a glass scintillation vial. The vial was heated for 1 hour at 120° after which time 0.2 ml more of 6N HCl was again added to each vial and the heating continued for another hour. Following this, 1.0 ml of 0.9% saline was added to each vial and finally 10 ml of scintillation liquid. Radioactivity was determined in a Packard Tri-Carb liquid scintillation counter. Percent inhibition is calculated by the formula: [formula] IC50 values were determined by plotting the log of the concentration of the test compound verses the percentage inhibition and fitting a straight line to the resulting data by using the least squares method.

Compound	pIC50	also measured
CC(=CC(=O)Sc1ccccn1)C=C(C)CC(C)CCCCC1OC(=O)C1CO (stereo not drawn) [2-pyridyl 11-(3-hydroxymethyl-4-oxo-2-oxetano)-3,5,7-trimethyl-2,4-undecadienthioate]	6.92	
CCCCCCNC(=O)C=C(C)C=C(C)CC(C)CCCCC1OC(=O)C1CO (stereo not drawn) [Example 7, N-n-hexyl 11-(3-hydroxymethyl-4-oxo-2-oxetano)-3,5,7-trimethyl-2,4-undecadienamide]	6.70	
CC(=CC(N)=O)C=C(C)CC(C)CCCCC1OC(=O)C1CO (stereo not drawn) [Example 8, 11-(3-hydroxymethyl-4-oxo-2-oxetano)-3,5,7-trimethyl-2,4-undecadienamide]	> 7.00	
CC(=CC(=O)Nc1ccc(Br)cc1)C=C(C)CC(C)CCCCC1OC(=O)C1CO (stereo not drawn) [Example 9, N--(4-bromophenyl)-11-(3-hydroxymethyl-4-oxo-2-oxetano)-3,5,7-trimethyl-2,4-undecadienamide]	7.00	
CC(=CC(=O)NCCO)C=C(C)CC(C)CCCCC1OC(=O)C1CO (stereo not drawn) [Example 10, N--(2-hydroxyethyl)-11-(3-hydroxymethyl-4-oxo-2-oxetano)-3,5,7-trimethyl-2,4-undecadienamide]	> 7.00	
CCOCC1C(=O)OC1CCCCC(C)CC(C)=CC(C)=CC(=O)OC (stereo not drawn) [Example 12, methyl 11-(3-ethoxymethyl-4-oxo-2-oxetano)-3,5,7-trimethvl-2.4-undecadienoate]	6.15	
C=CCOCC1C(=O)OC1CCCCC(C)CC(C)=CC(C)=CC(=O)OC (stereo not drawn) [Example 13, methyl 11-[3-(2-propenyloxymethyl)-4-oxo-2-oxetano]-3,5,7-trimethyl-2,4-undecadienoate]	6.00	
COCC1C(=O)OC1CCCCC(C)CC(C)=CC(C)=CC(=O)OC(c1ccccc1)c1ccccc1 (stereo not drawn) [Example 14 Step B, Diphenylmethyl 11-(3-methoxymethyl-4-oxo-2-oxetano)-3,5,7-trimethyl-2,4-undecadienoate]		IC50 (printed as (40 μg/ml) without footnote, read-out: IC50 (value printed in brackets as a concentration) (converted)): 79300 nM
COCC1C(=O)OC1CCCCC(C)CC(C)=CC(C)=CC(=O)O (stereo not drawn) [Example 14, 11-(3-methoxymethyl-4-oxo-2-oxetano)-3,5,7-trimethyl-2,4-undecadienoic acid]	6.96	
COC(=O)C=C(C)C=C(C)CC(C)CCCCC1OC(=O)C1COS(C)(=O)=O (stereo not drawn) [Example 16, methyl 11-(3-methanesulfonyloxymethyl-4-oxo-2-oxetano)-3,5,7-trimethyl-2,4-undecadienoate]	6.62	
CCC(C)C(=O)OCC1C(=O)OC1CCCCC(C)CC(C)=CC(C)=CC(=O)OC (stereo not drawn) [Example 18, methyl 11-[3-(2-methylbutyryloxymethyl)-4-oxo-2-oxetano]-3,5,7-trimethyl-2,4-undecadienoate]		inhibition at 10 µM (at 10^-5 M (IC25), read-out: percent inhibition): 25.4%
CC(=CC(=O)OC(C)(C)C)C=C(C)CC(C)CCCCC1OC(=O)C1CO (stereo not drawn) [Example 20, tert-butyl 11-(3-hydroxymethyl-4-oxo-2-oxetano)-3,5,7-trimethyl-2,4-undecadienoate]	6.30	
methyl 11-(3-urethanylmethyl)-4-oxo-2-oxetano)-3,5,7-trimethyl-2,4-undecadienoate		percent inhibition (at 40 μg/ml): 80.6%
methyl 11-[3-(N-methylurethanylmethyl)-4-oxo-2-oxetano]-3,5,7-trimethyl-2,4-undecadienoate [Example 19]		percent inhibition (at 4.0 μg/ml): 86.2%

Continued, in another order:

pIC50	Compound	also measured
6.57	COCC1C(=O)OC1CCCCC(C)CC(C)=CC(C)=CC(=O)OC (stereo not drawn) [Example 11, methyl 11-(3-methoxymethyl-4-oxo-2-oxetano)-3,5,7-trimethyl-2,4-undecadienoate]	
5.00	COc1ccc(C(OCC2C(=O)OC2CCCCC(C)CC(C)=CC(C)=CC(=O)O)(c2ccccc2)c2ccccc2)cc1 (stereo not drawn) [Example 15, 11-(3-anisyldiphenylmethyloxymethyl-4-oxo-2-oxetano)-3,5,7-trimethyl-2,4-undecadienoic acid]	
6.85	COC(=O)C=C(C)C=C(C)CC(C)CCCCC1OC(=O)C1COC=O (stereo not drawn) [Example 17, methyl 11-(3-formyloxymethyl-4-oxo-2-oxetano)-3,5,7-trimethyl-2,4-undecadienoate]	
5.62	COC(=O)C=C(C)C=C(C)CC(C)CCCCC1OC(=O)C1COC(=O)CCC(=O)O (stereo not drawn) [methyl 11-[3-(3-carboxypropionyloxymethyl)-4-oxo-2-oxetano]-3,5,7-trimethyl-2,4-undecadienoate]	
